Source: patent US7897750B2, “Strategies for gene expression analysis” (Althea Technologies, Inc., priority 2002, dated 2011)

Tested on: HepG2 cells
Assay: Multiplex rtPCR gene expression time course (15-plex) in treated cells
Format: cell-based
Details: 5×10^4 HepG2 cells, 25 μM, timepoints T=0, 2, 4, 8, 24, 48, 120 hours, triplicate, FIG. 9
Description: Cells were treated in triplicate and timepoints were collected at T=0, 2, 4, 8, 24, 48, and 120 hours. RNA was isolated using Qiagen's RNeasy kit for 96 well plates and the concentration was monitored using a Ribogreen Assay (Molecular Probes). The concentration of RNA from each sample was normalized to 5 ng/μl. rtPCR was carried out using 25 ng of RNA from each sample and the products were analyzed using an ABI 3100 Genetic Analyzer. Gene expression is expressed as a ratio to that of GAPDH. The multiplex included the following list of genes.
CV's for all genes and data points within the experiment ranged from a few percent to 20%.

Question: What does the source list for CC[C@H]1CN2CCc3cc(OC)c(OC)cc3[C@@H]2C[C@@H]1C[C@H]1NCCc2cc(OC)c(OC)cc21 [emitine]?
Answer: GRO1 gene expression, ratio to that of GAPDH: clear trends of induction; Il-8 gene expression, ratio to that of GAPDH: clear trends of induction
